From patent US20250152660A1, “SCO-spondin-derived polypeptides for treating biological barriers dysfunction” (AXOLTIS PHARMA, priority 2021, published 2025)
Where “and” joins values, the source holds several entries; their conditions need not be identical. Identical values can stand only once. Bridges are numbered along the chain shown (N, C = ends). Where no end group is shown, it is not given here.

Experiments:
[1] = system: mouse brain endothelial bEnd.3 cells; test: Permeability of mouse brain endothelial cell monolayer to FITC-40 kDa Dextran; type: cell-based; settings: for Permeability to FITC-40 kDa Dextran (endothelial permeability coefficient Pe): individual replicates N1-N3
Protocol: To determine the effect of NX218 on the permeability of mouse brain endothelial cells to a 40-kDa FITC Dextran, cells were grown on a semi-permeable membrane inserted in culture wells in presence or absence of NX218. Then, the FITC Dextran was placed on the apical chamber (containing the cells) and its levels measured (based on its fluorescence) one hour later in the basolateral chamber.
Mouse brain endothelial cells (bEnd.3, American Type Culture Collection) were cultured in DMEM supplemented with 10% FBS and 2 mM sodium pyruvate in a 5% CO2 incubator at 37° C.
bEnd.3 cells were grown to confluence on 1% fibronectin-coated Corning HTS 24-well Transwell polyester inserts with a pore size of 0.4 μm (5×10^4 cells per well containing 200 μL and 800 μL of culture medium in the apical and basolateral compartments respectively) and treated with vehicle or NX218 (1, 10 and 100 μM) for 1, 2 or 3 days. Two hundred (200) μL of 1 mg/mL of a 40-kDa FITC Dextran in DMEM supplemented with 10% FBS and 2 mM sodium pyruvate were added to the apical chamber of each well, and the cells were incubated at 37° C. Sampling aliquots were taken from the basolateral chamber and replaced with fresh medium every 15 min for 1 h and then transferred to 96-well plates. FITC-Dextran fluorescence was determined using a spectrofluorometer at an excitation wavelength of 485 nm and an emission wavelength of 520 nm. Relative fluorescence units were converted to values of nanograms per milliliter, using FITC-Dextran standard curves, and was corrected for background fluorescence and serial dilutions over the course of the experiment. The data are expressed as the endothelial permeability coefficient (Pe) in cm/min.

[2] = system: Occludin in mouse brain endothelial bEnd.3 cells; test: Occludin western blot in mouse brain endothelial cell cultures; type: cell-based; settings: for Expression of Occludin, Average: average of N1-N8
Protocol: To understand the effect of NX218 on the TEER and permeability of mouse brain endothelial cells, the levels of the tight junction protein Occludin were assessed using Western Blot.
Mouse brain endothelial cells (bEnd.3, American Type Culture Collection) were cultured in DMEM supplemented with 10% fetal FBS and 2 mM sodium pyruvate in a 5% CO2 incubator at 37° C.
bEnd.3 cells were seeded on 12-well plates (2.5×10^5 cells per well in 1,000 μL) for western-blot analyses. Two days after seeding, cells were treated with vehicle or NX218 (1, 10 and 100 μM) for 24 hours. Proteins were isolated from the cell layers with lysis buffer (62.5 mM Tris, 2% SDS, 10 mM dithiothreitol, 10 μL protease inhibitor cocktail/100 mL (Sigma-Aldrich)), centrifugated at 12,000 r.p.m for 20 min at 4° C., and supernatants were used for analysis of tight junction proteins. Protein concentrations were determined with the Pierce BCA protein assay (Thermo Scientific). Ten (10) μL of samples and standards (working range=125-2000 μg/mL) were loaded in duplicate into a 96-well plate and 200 μL of working reagent (50 parts BCA reagent A with 1 part BCA reagent B) were added to each well, mixed on a shaker and incubated at 37° C. for 30 min. The plate was cooled to RT and the absorbance read at 562 nm. Protein concentrations were calculated from a standard curve. Ten (10) μg total protein were loaded per well for separation by SDS-polyacrylamide gel electrophoresis (12% acrylamide). Gels were transferred onto methanol-activated polyvinylidene difluoride membranes (Merck Millipore) via semi-dry transfer. Transferred membranes were reactivated with methanol and blocked under slight agitation in tris-buffered saline (TBS)-Tween-20 containing 3% weight/volume Marvel non-fat dry milk for 1 h at RT. Blocked membranes were washed three times with TBS-Tween-20 and treated with primary rabbit polyclonal antibodies against Occludin (Novus Biotech, ref. NBP1-87402, 65 kDa, 1/1000 dilution) overnight at 4° C. Membranes were washed three times for 5 min in TBS-Tween-20 and incubated with horseradish peroxidase-conjugated goat anti-rabbit secondary antibody (A6154, Sigma-Aldrich) diluted 1/2,000 in TBS-Tween-20 for 2 h at RT. Secondary antibody was removed and membranes washed four times for 5 min in TBS-Tween-20. Blots were developed by enhanced chemiluminescence (ECL). A 1:1 mix of WesternBright ECL Luminol/enhancer solution and Peroxide Chemiluminescent solution (Advansta) was incubated at RT for 2 min before being directly added onto washed blots. The LiCor C-Digit Blot Scanner was used to detect chemiluminescence over a 12-minute exposure time.

Substance: W-S-G-W-S-S-C-S-R-S-C-G (WSGWSSCSRSCG; disulfide 7-11 (inferred)) [NX218]
- Permeability to FITC-40 kDa Dextran (Pe), Average ([1]; NX218 1 μM, 24 hours, average of N1-N3, control 0.066): 1064 ×10⁻⁶ cm/s
- Permeability to FITC-40 kDa Dextran (endothelial permeability coefficient Pe) ([1]; NX218 1 μM, 24 hours): 1020 ×10⁻⁶ cm/s and 971 ×10⁻⁶ cm/s and 1200 ×10⁻⁶ cm/s
- Permeability to FITC-40 kDa Dextran (Pe), Average ([1]; NX218 1 μM, 48 hours, average of N1-N3, control 0.05616): 896.3 ×10⁻⁶ cm/s
- Permeability to FITC-40 kDa Dextran (endothelial permeability coefficient Pe) ([1]; NX218 1 μM, 48 hours): 963 ×10⁻⁶ cm/s and 781.5 ×10⁻⁶ cm/s and 944.3 ×10⁻⁶ cm/s
- Permeability to FITC-40 kDa Dextran (Pe), Average ([1]; NX218 1 μM, 72 hours, average of N1-N3, control 0.0532667): 906.3 ×10⁻⁶ cm/s
- Permeability to FITC-40 kDa Dextran (endothelial permeability coefficient Pe) ([1]; NX218 1 μM, 72 hours): 942 ×10⁻⁶ cm/s and 942.2 ×10⁻⁶ cm/s and 834.8 ×10⁻⁶ cm/s
- Permeability to FITC-40 kDa Dextran (Pe), Average ([1]; NX218 10 μM, 24 hours, average of N1-N3, control 0.066): 977.3 ×10⁻⁶ cm/s
- Permeability to FITC-40 kDa Dextran (endothelial permeability coefficient Pe) ([1]; NX218 10 μM, 24 hours): 892 ×10⁻⁶ cm/s and 1030 ×10⁻⁶ cm/s and 1010 ×10⁻⁶ cm/s
- Permeability to FITC-40 kDa Dextran (Pe), Average ([1]; NX218 10 μM, 48 hours, average of N1-N3, control 0.05616): 841.3 ×10⁻⁶ cm/s
- Permeability to FITC-40 kDa Dextran (endothelial permeability coefficient Pe) ([1]; NX218 10 μM, 48 hours): 909 ×10⁻⁶ cm/s and 760 ×10⁻⁶ cm/s and 855 ×10⁻⁶ cm/s
- Permeability to FITC-40 kDa Dextran (Pe), Average ([1]; NX218 10 μM, 72 hours, average of N1-N3, control 0.0532667): 747.7 ×10⁻⁶ cm/s
- Permeability to FITC-40 kDa Dextran (endothelial permeability coefficient Pe) ([1]; NX218 10 μM, 72 hours): 748.2 ×10⁻⁶ cm/s and 783 ×10⁻⁶ cm/s and 712 ×10⁻⁶ cm/s
- Permeability to FITC-40 kDa Dextran (Pe), Average ([1]; NX218 100 μM, 24 hours, average of N1-N3, control 0.066): 942 ×10⁻⁶ cm/s
- Permeability to FITC-40 kDa Dextran (endothelial permeability coefficient Pe) ([1]; NX218 100 μM, 24 hours): 907 ×10⁻⁶ cm/s and 1012 ×10⁻⁶ cm/s and 906.3 ×10⁻⁶ cm/s
- Permeability to FITC-40 kDa Dextran (Pe), Average ([1]; NX218 100 μM, 48 hours, average of N1-N3, control 0.05616): 702 ×10⁻⁶ cm/s
- Permeability to FITC-40 kDa Dextran (endothelial permeability coefficient Pe) ([1]; NX218 100 μM, 48 hours): 627 ×10⁻⁶ cm/s and 725 ×10⁻⁶ cm/s and 753 ×10⁻⁶ cm/s
- Permeability to FITC-40 kDa Dextran (Pe), Average ([1]; NX218 100 μM, 72 hours, average of N1-N3, control 0.0532667): 782 ×10⁻⁶ cm/s
- Permeability to FITC-40 kDa Dextran (endothelial permeability coefficient Pe) ([1]; NX218 100 μM, 72 hours): 798 ×10⁻⁶ cm/s and 758.7 ×10⁻⁶ cm/s and 787.7 ×10⁻⁶ cm/s
- Increase of occludin protein levels vs control ([2]; 1 μM, 24 h, bEnd.3, p=0.0309): +26.3%
- Increase of occludin protein levels vs control ([2]; 10 μM, 24 h, bEnd.3, p=0.0053): +41.1%
- Increase of occludin protein levels vs control ([2]; 100 μM, 24 h, bEnd.3, p=0.0112): +36.8%
- Occludin protein levels, result in words ([2]; 1, 10 and 100 μM, 24 h, compared with control): significant increase of occludin protein levels
- Expression of Occludin ([2]; FIG. 6, 24-hour treatment): increases the expression of Occludin
- Expression of Occludin, Average ([2]; NX218 1 μM, 24 hours, bEnd.3, western blot): 126.30 % of Control
- Expression of Occludin ([2]; NX218 1 μM, 24 hours, bEnd.3, western blot, individual replicates N1-N8): 124.20 % of Control and 120.60 % of Control and 92.30 % of Control and 152.80 % of Control and 146.80 % of Control and 135.50 % of Control and 125.00 % of Control and 113.00 % of Control
- Expression of Occludin, Average ([2]; NX218 10 μM, 24 hours, bEnd.3, western blot): 141.10 % of Control
- Expression of Occludin ([2]; NX218 10 μM, 24 hours, bEnd.3, western blot, individual replicates N1-N8): 124.20 % of Control and 123.30 % of Control and 114.20 % of Control and 93.50 % of Control and 187.30 % of Control and 166.20 % of Control and 176.60 % of Control and 143.50 % of Control
- Expression of Occludin, Average ([2]; NX218 100 μM, 24 hours, bEnd.3, western blot): 136.80 % of Control
- Expression of Occludin ([2]; NX218 100 μM, 24 hours, bEnd.3, western blot, individual replicates N1-N8): 112.10 % of Control and 103.80 % of Control and 111.20 % of Control and 188.40 % of Control and 123.40 % of Control and 158.40 % of Control and 122.20 % of Control and 174.50 % of Control
